One block for each compound: values may come before it.
Assays:
[1] = target: Endothelial PAS domain-containing protein 1 (Homo sapiens, UniProt Q99814)
Description: Agonist activity at HIF-2alpha in human 786-0 cells assessed as increase in VEGF secretion incubated for 20 hrs by ELISA

in vivo [2] = settings: male, Sprague-Dawley, rat, po, 5 mg/kg
Description: Cmax in male Sprague-Dawley rat at 5 mg/kg, po measured after 32 hrs by LC-MS/MS analysis

in vivo [3] = settings: male, Sprague-Dawley, rat, po, 5 mg/kg; remark: listed apart in the source
Description: Tmax in male Sprague-Dawley rat at 5 mg/kg, po measured after 32 hrs by LC-MS/MS analysis

[4] = MRT (0 to t) in male Sprague-Dawley rat at 0.5 mg/kg, iv measured after 32 hrs by LC-MS/MS analysis; settings: in vivo
in vivo [5] = settings: male, Sprague-Dawley, rat, po, 5 mg/kg; remark: listed apart in the source
Description: AUC (0 to t) in male Sprague-Dawley rat at 5 mg/kg, po measured after 32 hrs by LC-MS/MS analysis

[6] = Clearance in male Sprague-Dawley rat at 0.5 mg/kg, iv measured after 32 hrs by LC-MS/MS analysis; settings: in vivo
[7] = MRT (0 to t) in male Sprague-Dawley rat at 5 mg/kg, po measured after 32 hrs by LC-MS/MS analysis; settings: in vivo
in vivo [8] = settings: male, Sprague-Dawley, rat, iv, 0.5 mg/kg
Description: AUC (0 to t) in male Sprague-Dawley rat at 0.5 mg/kg, iv measured after 32 hrs by LC-MS/MS analysis

[9] = Clearance in male Sprague-Dawley rat at 5 mg/kg, po measured after 32 hrs by LC-MS/MS analysis; settings: in vivo
in vivo [10] = settings: male, Sprague-Dawley, rat, po, 5 mg/kg; remark: listed apart in the source
Description: Oral bioavailability in male Sprague-Dawley rat at 5 mg/kg measured after 32 hrs by LC-MS/MS analysis

[11] = Half-life in male Sprague-Dawley rat at 5 mg/kg, po measured after 32 hrs by LC-MS/MS analysis; settings: in vivo
in vivo [12] = settings: male, Sprague-Dawley, rat, iv, 0.5 mg/kg; remark: listed apart in the source
Description: Cmax in male Sprague-Dawley rat at 0.5 mg/kg, iv measured after 32 hrs by LC-MS/MS analysis

[13] = Volume of distribution at steady state in male Sprague-Dawley rat at 0.5 mg/kg, iv measured after 32 hrs by LC-MS/MS analysis; settings: in vivo
in vivo [14] = settings: male, Sprague-Dawley, rat, iv, 0.5 mg/kg; remark: listed apart in the source
Description: Tmax in male Sprague-Dawley rat at 0.5 mg/kg, iv measured after 32 hrs by LC-MS/MS analysis

[15] = Half-life in male Sprague-Dawley rat at 0.5 mg/kg, iv measured after 32 hrs by LC-MS/MS analysis; settings: in vivo

Chain of Endothelial PAS domain-containing protein 1 (Q99814 whole entry, the tested form may be a part): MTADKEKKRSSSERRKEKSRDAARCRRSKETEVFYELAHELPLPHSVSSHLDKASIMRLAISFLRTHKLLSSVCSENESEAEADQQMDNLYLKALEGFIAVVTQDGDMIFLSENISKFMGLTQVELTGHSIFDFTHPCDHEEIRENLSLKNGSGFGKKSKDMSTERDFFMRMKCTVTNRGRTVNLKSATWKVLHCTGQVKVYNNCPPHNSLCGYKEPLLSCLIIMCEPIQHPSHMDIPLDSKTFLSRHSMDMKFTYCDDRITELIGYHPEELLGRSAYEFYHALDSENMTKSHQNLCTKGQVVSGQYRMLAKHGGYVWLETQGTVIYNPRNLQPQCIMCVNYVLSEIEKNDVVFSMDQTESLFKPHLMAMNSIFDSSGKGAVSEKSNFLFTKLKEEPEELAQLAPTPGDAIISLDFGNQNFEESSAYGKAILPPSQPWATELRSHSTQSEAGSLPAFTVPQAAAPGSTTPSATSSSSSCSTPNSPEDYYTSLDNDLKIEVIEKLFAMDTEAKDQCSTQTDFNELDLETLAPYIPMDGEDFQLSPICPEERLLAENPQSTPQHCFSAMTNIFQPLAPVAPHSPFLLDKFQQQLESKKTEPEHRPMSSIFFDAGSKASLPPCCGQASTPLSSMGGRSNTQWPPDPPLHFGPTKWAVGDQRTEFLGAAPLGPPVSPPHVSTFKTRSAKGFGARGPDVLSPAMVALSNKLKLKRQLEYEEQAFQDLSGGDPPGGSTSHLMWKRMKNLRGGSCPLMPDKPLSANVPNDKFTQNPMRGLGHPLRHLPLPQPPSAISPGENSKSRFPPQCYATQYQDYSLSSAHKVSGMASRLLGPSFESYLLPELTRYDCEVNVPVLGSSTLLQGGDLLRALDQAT

EC50 [1]: 5.62 µM
Compound: Cc1onc(-c2ccccc2Cl)c1C(=O)Nc1cc(C(F)(F)F)ccn1

EC50 [1]: 9.86 µM
Compound: Cc1onc(-c2ccccc2Cl)c1C(=O)N1CCOCC1

EC50 [1]: 10 µM
Compound: Cc1onc(-c2ccccc2F)c1C(=O)Nc1cccc(C(F)(F)F)c1

EC50 [1]: 5.01 µM
Compound: Nc1ncc(C(=O)Nc2cccc(C(F)(F)F)c2)c(-c2ccccc2Cl)n1

EC50 [1]: 6.21 µM
Compound: Cc1onc(-c2ccccc2Cl)c1C(=O)Nc1cccc(C#N)c1

Cmax at 32 h (in vivo [2]): 1290 ng/mL
Tmax at 32 h (in vivo [3]): 1.33 h
MRT last at 32 h [4]: 1.54 h
AUC(0-t) at 32 h (in vivo [5]): 11100 ng·h/mL
clearance at 32 h [6]: 5.33 mL/min/kg
MRT last at 32 h [7]: 4.6 h
AUC(0-t) at 32 h (in vivo [8]): 1610 ng·h/mL
CL/F at 32 h [9]: 8.83 mL/min/kg
bioavailability at 32 h (in vivo [10]): 68.7%
half-life at 32 h [11]: 5.09 h
Cmax at 32 h (in vivo [12]): 1620 ng/mL
Vd at 32 h [13]: 0.53 L/kg
Tmax at 32 h (in vivo [14]): 1.8 min
EC50 [1]: 1.78 µM
half-life at 32 h [15]: 2.53 h
Compound: O=C(Nc1cccc(C(F)(F)F)c1)c1cn[nH]c1-c1ccccc1Cl

Cmax at 32 h (in vivo [2]): 35.9 ng/mL
Tmax at 32 h (in vivo [3]): 1.5 h
AUC(0-t) at 32 h (in vivo [5]): 194 ng·h/mL
MRT last at 32 h [7]: 7.79 h
AUC(0-t) at 32 h (in vivo [8]): 278 ng·h/mL
bioavailability at 32 h (in vivo [10]): 7.02%
Cmax at 32 h (in vivo [12]): 285 ng/mL
Tmax at 32 h (in vivo [14]): 1.8 min
EC50 [1]: 2.29 µM
Compound: Cc1onc(-c2ccccc2OC(F)F)c1C(=O)Nc1cccc(C(F)(F)F)c1
